Assays:
bedstraw = test: Test B pre/postemergence bedstraw; assay type: in vivo, Galium aparine
Summary of the method: (§1)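 Herbicidal effect was estimated by eye on a ten-point control scale after plants spent twelve to sixteen days in a greenhouse following soil or foliar treatment. Foliar sprays targeted plants at one to four leaves; all doses were formulated in a non-phytotoxic solvent with surfactant.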

blackgrass = test: Test B pre/postemergence blackgrass; assay type: in vivo, Alopecurus myosuroides
Summary of the method: as §1

surinam grass = test: Test B pre/postemergence surinam grass; assay type: in vivo, Brachiaria decumbens
Summary of the method: as §1

cocklebur = test: Test B pre/postemergence cocklebur; assay type: in vivo, Xanthium strumarium
Summary of the method: as §1

corn = test: Test B pre/postemergence corn; assay type: in vivo, Zea mays
Summary of the method: as §1

crabgrass = test: Test B pre/postemergence crabgrass; assay type: in vivo, Digitaria sanguinalis
Summary of the method: as §1

giant foxtail = test: Test B pre/postemergence giant foxtail; assay type: in vivo, Setaria faberii
Summary of the method: as §1

morningglory = test: Test B pre/postemergence morningglory; assay type: in vivo, Ipomoea hederacea
Summary of the method: as §1

pigweed = test: Test B pre/postemergence pigweed; assay type: in vivo, Amaranthus retroflexus
Summary of the method: as §1

rape = test: Test B pre/postemergence rape; assay type: in vivo, Brassica napus
Summary of the method: as §1

soybean = test: Test B pre/postemergence soybean; assay type: in vivo, Glycine max
Summary of the method: as §1

sugar beet = test: Test B pre/postemergence sugar beet; assay type: in vivo, Beta vulgaris
Summary of the method: as §1

velvetleaf = test: Test B pre/postemergence velvetleaf; assay type: in vivo, Abutilon theophrasti
Summary of the method: as §1

wheat = test: Test B pre/postemergence wheat; assay type: in vivo, Triticum aestivum
Summary of the method: as §1

wild oat = test: Test B pre/postemergence wild oat; assay type: in vivo, Avena fatua
Summary of the method: as §1

purple nutsedge = test: Test B pre/postemergence purple nutsedge; assay type: in vivo, Cyperus rotundus
Summary of the method: as §1

rice = test: Test B flood test rice; assay type: in vivo, Oryza sativa
Summary of the method: (§2)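 Read-out is a visual response score from 0 (no effect) to 10 (complete control), assigned by comparison with untreated controls. Treatment was applied at the 2-leaf stage, and plants stayed in the greenhouse for twelve to sixteen days before scoring.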

smallflower flatsedge = test: Test B flood test smallflower flatsedge; assay type: in vivo, Cyperus difformis
Summary of the method: as §2

duck salad = test: Test B flood test duck salad; assay type: in vivo, Heteranthera limosa
Summary of the method: as §2

bamyardgrass = test: Test B flood test barnyardgrass; assay type: in vivo, Echinochloa crus-galli
Summary of the method: as §2

[1] = Postemergence, Rate 125 g/ha, scale of 0 to 10 where 0 is no effect and 10 is complete control
[2] = Preemergence, Rate 31 g/ha, visual rating, scale 0 to 10 (0 no effect, 10 complete control)
[3] = Preemergence, Rate 62 g/ha, scale 0 to 10 (0 no effect, 10 complete control)
[4] = Preemergence, Rate 250 g/ha, scale 0 to 10 (0 no effect, 10 complete control)
[5] = Postemergence, Rate 31 g/ha, visual rating, scale 0 to 10 (0 no effect, 10 complete control)
[6] = Postemergence, Rate 62 g/ha, scale 0 to 10, 0 is no effect, 10 is complete control
[7] = Preemergence, Rate 125 g/ha, scale of 0 to 10 where 0 is no effect and 10 is complete control
[8] = Rate 31 g/ha, Pre-emergence section (flood test species), scale 0 to 10
[9] = Rate 62 g/ha, flood test species, Pre-emergence, visual evaluation after twelve to sixteen days
[10] = Rate 125 g/ha, under heading Pre-emergence, flood test species, visual evaluation after twelve to sixteen days
[11] = Rate 250 g/ha, Pre-emergence (flood test species), scale 0 to 10, 0 is no effect, 10 is complete control

CCOC(=O)CC(C(=O)OCC)n1c(=O)on(C(=O)N(c2ccccc2)C(C)C)c1=O (stereo not shown) [Compound 614]
2: Plant response rating, Morningglory (morningglory; [6]) | Plant response rating, Morningglory (morningglory; [1]) | Soybean plant response rating (soybean; [5])
1: Plant response rating, Crabgrass (crabgrass; [1])
6: Crabgrass plant response rating (crabgrass; [7])
0: Plant response rating, Bedstraw (bedstraw; [1]) | Bedstraw plant response rating (bedstraw; [2]) | Bedstraw plant response rating (bedstraw; [3]) | Plant response rating, Bedstraw (bedstraw; [4]) | Blackgrass plant response rating (blackgrass; [5]) | Plant response rating, Blackgrass (blackgrass; [6]) | Plant response rating, Blackgrass (blackgrass; [1]) | Blackgrass plant response rating (blackgrass; [2]) | Blackgrass plant response rating (blackgrass; [3]) | Blackgrass plant response rating (blackgrass; [7]) | B. signalgrass plant response rating (surinam grass; [5]) | Plant response rating, B. signalgrass (surinam grass; [6]) | Plant response rating, B. signalgrass (surinam grass; [1]) | B. signalgrass plant response rating (surinam grass; [2]) | B. signalgrass plant response rating (surinam grass; [3]) | B. signalgrass plant response rating (surinam grass; [7]) | Plant response rating, B. signalgrass (surinam grass; [4]) | Cocklebur plant response rating (cocklebur; [5]) | Plant response rating, Cocklebur (cocklebur; [6]) | Plant response rating, Cocklebur (cocklebur; [1]) | Cocklebur plant response rating (cocklebur; [2]) | Cocklebur plant response rating (cocklebur; [3]) | Cocklebur plant response rating (cocklebur; [7]) | Plant response rating, Cocklebur (cocklebur; [4]) | Corn plant response rating (corn; [5]) | Plant response rating, Corn (corn; [6]) | Plant response rating, Corn (corn; [1]) | Corn plant response rating (corn; [2]) | Corn plant response rating (corn; [3]) | Corn plant response rating (corn; [7]) | Plant response rating, Corn (corn; [4]) | Crabgrass plant response rating (crabgrass; [5]) | Plant response rating, Crabgrass (crabgrass; [6]) | Crabgrass plant response rating (crabgrass; [2]) | Crabgrass plant response rating (crabgrass; [3]) | Giant foxtail plant response rating (giant foxtail; [5]) | Plant response rating, Giant foxtail (giant foxtail; [6]) | Plant response rating, Giant foxtail (giant foxtail; [1]) | Giant foxtail plant response rating (giant foxtail; [2]) | Giant foxtail plant response rating (giant foxtail; [3]) | Morningglory plant response rating (morningglory; [5]) | Morningglory plant response rating (morningglory; [3]) | Morningglory plant response rating (morningglory; [7]) | Plant response rating, Morningglory (morningglory; [4]) | Redroot pigweed plant response rating (pigweed; [5]) | Plant response rating, Redroot pigweed (pigweed; [6]) | Plant response rating, Redroot pigweed (pigweed; [1]) | Redroot pigweed plant response rating (pigweed; [3]) | Redroot pigweed plant response rating (pigweed; [7]) | Plant response rating, Redroot pigweed (pigweed; [4]) | Rape plant response rating (rape; [5]) | Plant response rating, Rape (rape; [6]) | Plant response rating, Rape (rape; [1]) | Rape plant response rating (rape; [3]) | Rape plant response rating (rape; [7]) | Plant response rating, Rape (rape; [4]) | Soybean plant response rating (soybean; [3]) | Soybean plant response rating (soybean; [7]) | Plant response rating, Soybean (soybean; [4]) | Sugarbeets plant response rating (sugar beet; [5]) | Plant response rating, Sugarbeets (sugar beet; [6]) | Plant response rating, Sugarbeets (sugar beet; [1]) | Sugarbeets plant response rating (sugar beet; [3]) | Sugarbeets plant response rating (sugar beet; [7]) | Plant response rating, Sugarbeets (sugar beet; [4]) | Velvetleaf plant response rating (velvetleaf; [5]) | Plant response rating, Velvetleaf (velvetleaf; [6]) | Plant response rating, Velvetleaf (velvetleaf; [1]) | Velvetleaf plant response rating (velvetleaf; [3]) | Velvetleaf plant response rating (velvetleaf; [7]) | Plant response rating, Velvetleaf (velvetleaf; [4]) | Wheat plant response rating (wheat; [5]) | Plant response rating, Wheat (wheat; [6]) | Plant response rating, Wheat (wheat; [1]) | Wheat plant response rating (wheat; [3]) | Wheat plant response rating (wheat; [7]) | Plant response rating, Wheat (wheat; [4]) | Wild oats plant response rating (wild oat; [5]) | Plant response rating, Wild oats (wild oat; [6]) | Plant response rating, Wild oats (wild oat; [1]) | Wild oats plant response rating (wild oat; [3]) | Wild oats plant response rating (wild oat; [7]) | Plant response rating, Wild oats (wild oat; [4]) | Nutsedge plant response rating (purple nutsedge; [5]) | Plant response rating, Nutsedge (purple nutsedge; [6]) | Plant response rating, Nutsedge (purple nutsedge; [1]) | Nutsedge plant response rating (purple nutsedge; [7]) | Plant response rating, Nutsedge (purple nutsedge; [4]) | Rice plant response rating (rice; [8]) | Plant response rating, Rice (0 to 10 scale, 0 is no effect, 10 is complete control) (rice; [9]) | Rice plant response rating (0 to 10 scale, 0 is no effect, 10 is complete control) (rice; [10]) | Rice plant response rating (rice; [11]) | S. Flatsedge plant response rating (smallflower flatsedge; [8]) | Plant response rating, S. Flatsedge (0 to 10 scale, 0 is no effect, 10 is complete control) (smallflower flatsedge; [9]) | S. Flatsedge plant response rating (0 to 10 scale, 0 is no effect, 10 is complete control) (smallflower flatsedge; [10]) | S. Flatsedge plant response rating (smallflower flatsedge; [11]) | Ducksalad plant response rating (duck salad; [8]) | Plant response rating, Ducksalad (0 to 10 scale, 0 is no effect, 10 is complete control) (duck salad; [9]) | Ducksalad plant response rating (0 to 10 scale, 0 is no effect, 10 is complete control) (duck salad; [10]) | Ducksalad plant response rating (duck salad; [11]) | Barnyardgrass plant response rating (bamyardgrass; [8]) | Plant response rating, Barnyardgrass (0 to 10 scale, 0 is no effect, 10 is complete control) (bamyardgrass; [9]) | Barnyardgrass plant response rating (0 to 10 scale, 0 is no effect, 10 is complete control) (bamyardgrass; [10]) | Barnyardgrass plant response rating (bamyardgrass; [11])
4: Giant foxtail plant response rating (giant foxtail; [7])
9: Plant response rating, Giant foxtail (giant foxtail; [4])
3: Plant response rating, Blackgrass (blackgrass; [4]) | Plant response rating, Soybean (soybean; [6]) | Plant response rating, Soybean (soybean; [1])
8: Plant response rating, Crabgrass (crabgrass; [4])

From patent publication US6737383B1, “Herbicidal oxadiazolidines” (priority 1999, dated 2004)
